In the oligonucleotide strings, read from the 5' end, every base follows the letter of its sugar. An asterisk marks phosphorothioate; unmarked linkages are phosphodiester. Other units and linkages are bracketed, terminal groups are in braces. A string of capitals states the bases alone. d = 2'-deoxy (DNA); m = 2'-O-methyl
molecular target: T1, human TLR9 (Homo sapiens, UniProt Q9NR96); experiment: HEK-TLR9 NF-κB-luciferase reporter, ODN2006 stimulation; format: cell-based; settings: HEK-TLR9; 500 nM ASO 45 min, then 200 nM ODN2006 overnight; percentage of ODN2006 only
T1 construct: HA; host or cells: 293XL-hTLR9-HA (HEK293)
T1 sequence (Q9NR96 26-1032): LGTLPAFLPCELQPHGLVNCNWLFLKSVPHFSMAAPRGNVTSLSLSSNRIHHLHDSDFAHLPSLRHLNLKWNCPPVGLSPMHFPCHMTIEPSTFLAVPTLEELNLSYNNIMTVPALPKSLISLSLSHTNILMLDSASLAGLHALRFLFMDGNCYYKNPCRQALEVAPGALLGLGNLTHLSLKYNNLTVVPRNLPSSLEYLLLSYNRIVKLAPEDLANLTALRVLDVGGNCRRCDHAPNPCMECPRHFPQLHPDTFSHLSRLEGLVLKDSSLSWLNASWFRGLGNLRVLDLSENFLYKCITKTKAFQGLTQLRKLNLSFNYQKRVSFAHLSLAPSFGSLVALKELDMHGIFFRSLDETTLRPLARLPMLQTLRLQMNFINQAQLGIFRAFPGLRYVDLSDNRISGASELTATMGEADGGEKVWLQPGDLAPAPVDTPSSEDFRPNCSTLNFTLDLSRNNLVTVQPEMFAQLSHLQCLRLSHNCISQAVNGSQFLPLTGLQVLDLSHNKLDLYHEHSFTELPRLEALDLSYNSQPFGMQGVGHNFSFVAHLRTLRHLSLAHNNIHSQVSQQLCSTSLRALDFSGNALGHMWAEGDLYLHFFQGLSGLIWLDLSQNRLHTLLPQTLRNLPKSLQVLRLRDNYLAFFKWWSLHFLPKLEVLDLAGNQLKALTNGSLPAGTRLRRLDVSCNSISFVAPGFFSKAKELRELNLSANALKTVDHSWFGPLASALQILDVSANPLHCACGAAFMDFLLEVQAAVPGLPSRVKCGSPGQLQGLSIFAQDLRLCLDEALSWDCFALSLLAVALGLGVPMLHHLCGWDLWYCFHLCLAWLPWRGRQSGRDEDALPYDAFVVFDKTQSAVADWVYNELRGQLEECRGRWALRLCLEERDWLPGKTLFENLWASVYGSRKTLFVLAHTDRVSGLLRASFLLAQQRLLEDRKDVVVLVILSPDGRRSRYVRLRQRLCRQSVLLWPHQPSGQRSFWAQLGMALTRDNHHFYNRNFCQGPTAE

Row | Substance | TLR9-500 nM: averaged NF-κB-Luciferase relative to ODN2006 [%]
1 | mC*mA*mU*mC*mC*C*T*T*C*T*G*C*T*G*C*mC*mA*mA*mG*mC (mC*mA*mU*mC*mC*dC*dT*dT*dC*dT*dG*dC*dT*dG*dC*mC*mA*mA*mG*mC; antisense) [[LINC-PINT]98] | 65.09
2 | mC*mC*mA*mU*mC*C*C*T*T*C*T*G*C*T*G*mC*mC*mA*mA*mG (mC*mC*mA*mU*mC*dC*dC*dT*dT*dC*dT*dG*dC*dT*dG*mC*mC*mA*mA*mG; antisense) [ILING-PINT199] | 92.72
3 | mC*mC*mA*mU*mG*T*C*C*C*A*G*G*C*C*T*mC*mC*mA*mG*mU (CCAUGTCCCAGGCCTCCAGU; sugars from the 5' end m5 d10 m5, all phosphorothioate, methylation of C not given here) [[CDKN2B-AS1]2227] | 48.79
4 | mC*mC*mC*mU*mA*A*T*G*C*T*T*T*C*C*T*mC*mU*mC*mC*mA (mC*mC*mC*mU*mA*dA*dT*dG*dC*dT*dT*dT*dC*dC*dT*mC*mU*mC*mC*mA; antisense) [[LINC-PINT1877 KL] | 86.47
5 | mC*mC*mC*mU*mU*C*T*C*T*C*T*G*G*T*C*mC*mC*mA*mU*mC (mC*mC*mC*mU*mU*dC*dT*dC*dT*dC*dT*dG*dG*dT*dC*mC*mC*mA*mU*mC; antisense) [[LINC-PINT]114] | 62.09
6 | mC*mC*mU*mA*mG*A*A*A*G*A*A*G*C*A*A*mA*mG*mA*mU*mU (mC*mC*mU*mA*mG*dA*dA*dA*dG*dA*dA*dG*dC*dA*dA*mA*mG*mA*mU*mU) [[CDKN2B-AS1]1522] | 42.44
7 | mC*mC*mU*mU*mC*T*C*T*C*T*G*GT*C*C*mC*mA*mU*mC*mC (CCUUCTCTCTGGTCCCAUCC; antisense; chemistry not fully specified) [[LINC-PINT]113] | 55.47
8 | mC*mC*mU*mU*mC*T*G*C*T*G*C*C*A*A*G*mC*mC*mC*mC*mA (mC*mC*mU*mU*mC*dT*dG*dC*dT*dG*dC*dC*dA*dA*dG*mC*mC*mC*mC*mA; antisense) [[LINC-PINT]94] | 96.69
9 | mC*mU*mC*mU*mC*T*G*G*T*C*C*C*A*T*C*mC*mC*mU*mU*mC (mC*mU*mC*mU*mC*dT*dG*dG*dT*dC*dC*dC*dA*dT*dC*mC*mC*mU*mU*mC; antisense) [[LINC-PINT]109] | 89.85
10 | mC*mU*mU*mC*mU*C*T*C*T*G*G*T*C*C*C*mA*mU*mC*mC*mC (mC*mU*mU*mC*mU*dC*dT*dC*dT*dG*dG*dT*dC*dC*dC*mA*mU*mC*mC*mC) [[LINC-PINT]112] | 64.35
11 | mC*mU*mU*mU*mA*T*A*T*T*A*C*A*A*A*G*mC*mU*mA*mC*mU (mC*mU*mU*mU*mA*dT*dA*dT*dT*dA*dC*dA*dA*dA*dG*mC*mU*mA*mC*mU; antisense) [[LINC-PINT]2755] | 84.43
12 | mG*mA*mA*mA*mA*G*A*T*T*A*T*C*T*T*C*mU*mU*mU*mU*mA (GAAAAGATTATCTTCUUUUA; sugars from the 5' end m5 d10 m5, all phosphorothioate, methylation of C not given here) [[CDKN2B-AS1]2134] | 61.11
13 | mG*mA*mU*mG*mG*T*T*C*C*A*G*T*C*C*C*mU*mC*mU*mU*mC (GAUGGTTCCAGTCCCUCUUC; antisense; sugars from the 5' end m5 d10 m5, all phosphorothioate, methylation of C not given here) [[LINC-PINT]1497.1] | 80.47
14 | mG*mA*mU*mU*mA*A*A*A*C*A*G*A*T*T*A*mA*mU*mA*mC*mA (mG*mA*mU*mU*mA*dA*dA*dA*dC*dA*dG*dA*dT*dT*dA*mA*mU*mA*mC*mA) [[CDKN2B-AS1]1773] | 44.97
15 | mG*mC*mA*mA*mG*G*C*A*G*A*G*A*A*A*C*mU*mC*mC*mA*mG (GCAAGGCAGAGAAACUCCAG; sugars from the 5' end m5 d10 m5, all phosphorothioate, methylation of C not given here) [[LINC-PINT]1315 KL] | 53.46
16 | mG*mC*mG*mU*mA*G*T*T*T*C*T*C*T*T*C*mC*mU*mC*mC*mC (GCGUAGTTTCTCTTCCUCCC; sugars from the 5' end m5 d10 m5, all phosphorothioate, methylation of C not given here) [[LINC-PINT]935 KL] | 52.04

Row | Substance | TLR9-500 nM: averaged NF-κB-Luciferase relative to ODN2006 [%]
17 | mG*mG*mA*mU*mU*A*A*A*A*C*A*G*A*T*T*mA*mA*mU*mA*mC (GGAUUAAAACAGATTAAUAC; sugars from the 5' end m5 d10 m5, all phosphorothioate, methylation of C not given here) [[CDKN2B-AS1]1774] | 27.79
18 | mG*mG*mG*mU*mC*T*C*C*T*C*C*A*C*A*C*mC*mC*mU*mU*mC (GGGUCTCCTCCACACCCUUC; antisense; sugars from the 5' end m5 d10 m5, all phosphorothioate, methylation of C not given here) [[LINC-PINT]128] | 94.51
19 | mG*mG*mU*mC*mC*C*A*T*C*C*C*T*T*C*T*mG*mC*mU*mG*mC (GGUCCCATCCCTTCTGCUGC; sugars from the 5' end m5 d10 m5, all phosphorothioate, methylation of C not given here) [[LINC-PINT]103] | 88.75
20 | mG*mG*mU*mC*mU*C*C*T*C*C*A*C*A*C*C*mC*mU*mU*mC*mU (mG*mG*mU*mC*mU*dC*dC*dT*dC*dC*dA*dC*dA*dC*dC*mC*mU*mU*mC*mU; antisense) [[LINC-PINT]127] | 77.91
21 | mG*mG*mU*mG*mG*C*C*A*C*A*G*G*C*A*A*mC*mG*mU*mC*mA (GGUGGCCACAGGCAACGUCA; antisense; sugars from the 5' end m5 d10 m5, all phosphorothioate, methylation of C not given here) [[CDKN2B-AS1]2196] | 97.04
22 | mG*mU*mC*mA*mA*A*C*C*T*A*G*A*A*A*G*mA*mA*mG*mC*mA (mG*mU*mC*mA*mA*dA*dC*dC*dT*dA*dG*dA*dA*dA*dG*mA*mA*mG*mC*mA; antisense) [[CDKN2B-AS1]1528] | 68.13
23 | mG*mU*mC*mC*mC*A*G*G*C*C*T*C*C*A*G*mU*mG*mU*mC*mU (mG*mU*mC*mC*mC*dA*dG*dG*dC*dC*dT*dC*dC*dA*dG*mU*mG*mU*mC*mU; antisense) [[CDKN2B-AS1]2223] | 67.61
24 | mG*mU*mC*mC*mC*A*T*C*C*C*T*T*C*T*G*mC*mU*mG*mC*mC (GUCCCATCCCTTCTGCUGCC; antisense; sugars from the 5' end m5 d10 m5, all phosphorothioate, methylation of C not given here) [[LINC-PINT]102] | 101.22
25 | mG*mU*mC*mC*mG*T*A*C*C*T*C*C*A*C*C*mC″mA*mC*mC*mG [[LINC-PINT]727.1] | 58.15
26 | mG*mU*mC*mU*mC*C*T*C*C*A*C*A*C*C*C*mU*mU*mC*mU*mC (mG*mU*mC*mU*mC*dC*dT*dC*dC*dA*dC*dA*dC*dC*dC*mU*mU*mC*mU*mC; antisense) [[LINC-PINT]126] | 77.09
27 | mG*mU*mU*mC*mA*G*T*C*A*G*A*T*C*G*C*mU*mG*mG*mG*mA (mG*mU*mU*mC*mA*dG*dT*dC*dA*dG*dA*dT*dC*dG*dC*mU*mG*mG*mG*mA) [[LINC-PINT]412 KL] | 77.50
28 | mU*mA*mA*mA*mA*T*A*A*G*G*G*G*A*A*T*mA*mG*mG*mG*mG (mU*mA*mA*mA*mA*dT*dA*dA*dG*dG*dG*dG*dA*dA*dT*mA*mG*mG*mG*mG) [[CDKN2B-AS1]80] | 64.58
29 | mU*mC*mC*mC*mA*A*C*T*C*T*T*C*T*A*A*mC*mU*mC*mG*mU (mU*mC*mC*mC*mA*dA*dC*dT*dC*dT*dT*dC*dT*dA*dA*mC*mU*mC*mG*mU; antisense) [[LINC-PINT]1284 KL] | 86.73
30 | mU*mC*mC*mC*mA*T*C*C*C*T*T*C*T*G*C*mU*mG*mA*mC*mA (UCCCATCCCTTCTGCUGACA; sugars from the 5' end m5 d10 m5, all phosphorothioate, methylation of C not given here) [[LINC-PINT]101] | 59.80
31 | mU*mC*mU*mC*mC*A*T*G*T*C*C*C*A*G*G*mC*mC*mU*mC*mC (mU*mC*mU*mC*mC*dA*dT*dG*dT*dC*dC*dC*dA*dG*dG*mC*mC*mU*mC*mC; antisense) [[CDKN2B-AS1]2230] | 118.93

Source: patent US20240384268A1, “Oligonucleotides” (Hudson Institute of Medical Research, priority 2021, published 2024)
